Key:
Test in all cases: relative viability (nuclei count vs DMSO), 5 days (fraction); higher = more cells survive
FG-4592 + Dasatinib = compound: Cc1nc(C(=O)NCC(=O)O)c(O)c2ccc(Oc3ccccc3)cc12 [FG-4592] + Cc1nc(Nc2ncc(C(=O)Nc3c(C)cccc3Cl)s2)cc(N2CCN(CCO)CC2)n1 [Dasatinib] (partner 0.075 µM)
Procedure, shortened: (§1)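 Each reported value is a median over duplicate plates. It expresses relative viability: treated-well nuclei count divided by vehicle-well nuclei count. Lung cancer cell lines in 1536-well plates were dosed by pin tool a day after seeding, alone with one drug or with a fixed anchor-drug dose plus five library-drug doses (not always all listed) in √10 steps, and nuclei were counted after 5 days.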

IU1-47 + Navitoclax = compound: CC1=CC(=C(N1C2=CC=C(C=C2)Cl)C)C(=O)CN3CCCCC3 [IU1-47] + CC1(C)CCC(c2ccc(Cl)cc2)=C(CN2CCN(c3ccc(C(=O)NS(=O)(=O)c4ccc(N[C@H](CCN5CCOCC5)CSc5ccccc5)c(S(=O)(=O)C(F)(F)F)c4)cc3)CC2)C1 [Navitoclax] (partner 0.5 µM)
Procedure, shortened: as §1

IU1-47 + Lapatinib = compound: CC1=CC(=C(N1C2=CC=C(C=C2)Cl)C)C(=O)CN3CCCCC3 [IU1-47] + CS(=O)(=O)CCNCc1ccc(-c2ccc3ncnc(Nc4ccc(OCc5cccc(F)c5)c(Cl)c4)c3c2)o1 [Lapatinib] (partner 2 µM)
Procedure, shortened: as §1

FG-4592 + Luminespib = compound: Cc1nc(C(=O)NCC(=O)O)c(O)c2ccc(Oc3ccccc3)cc12 [FG-4592] + CCNC(=O)c1noc(-c2cc(C(C)C)c(O)cc2O)c1-c1ccc(CN2CCOCC2)cc1 [Luminespib] (partner 0.01 µM)
Procedure, shortened: as §1

| Cell Line | relative viability (FG-4592 + Dasatinib; first compound 0.08 µM) | relative viability (FG-4592 + Dasatinib; first compound 0.253 µM) | relative viability (FG-4592 + Dasatinib; first compound 0.8 µM) | relative viability (FG-4592 + Dasatinib; first compound 2.53 µM) | relative viability (FG-4592 + Dasatinib; first compound 8 µM) | relative viability (IU1-47 + Navitoclax; first compound 0.08 µM) | relative viability (IU1-47 + Navitoclax; first compound 0.253 µM) | relative viability (IU1-47 + Navitoclax; first compound 0.8 µM) | relative viability (IU1-47 + Navitoclax; first compound 2.53 µM) | relative viability (IU1-47 + Navitoclax; first compound 8 µM) | relative viability (IU1-47 + Lapatinib; first compound 0.08 µM) | relative viability (IU1-47 + Lapatinib; first compound 0.253 µM) | relative viability (IU1-47 + Lapatinib; first compound 0.8 µM) | relative viability (IU1-47 + Lapatinib; first compound 2.53 µM) | relative viability (IU1-47 + Lapatinib; first compound 8 µM) | relative viability (FG-4592 + Luminespib; first compound 0.08 µM) | relative viability (FG-4592 + Luminespib; first compound 0.253 µM) | relative viability (FG-4592 + Luminespib; first compound 0.8 µM) | relative viability (FG-4592 + Luminespib; first compound 2.53 µM) | relative viability (FG-4592 + Luminespib; first compound 8 µM) |
| --- | --- | --- | --- | --- | --- | --- | --- | --- | --- | --- | --- | --- | --- | --- | --- | --- | --- | --- | --- | --- |
| SW 1573 | 0.528 | 0.344 | 0.522 | 0.354 | 0.406 | 1.03 | 1.14 | 1.04 | 0.893 | 1.09 | 1.08 | 1.06 | 0.894 | 0.966 | 1.16 | 0.224 | 0.547 | 0.186 | 0.415 | 0.223 |
| A-427 | 0.649 | 0.611 | 0.741 | 0.725 | 0.717 | 1.04 | 0.993 | 1.04 | – | 0.926 | 1.01 | 0.994 | 0.977 | – | 0.873 | 0.912 | 0.926 | 0.89 | 1.18 | 1 |
| NCI-H2347 | 0.323 | – | 0.263 | 0.284 | 0.279 | 0.964 | 0.888 | 0.912 | 0.874 | 0.802 | 1.13 | 0.863 | 1.04 | 0.761 | 0.834 | 0.4 | – | 0.258 | 0.323 | 0.293 |
| NCI-H1355 | 0.763 | 0.638 | 0.476 | 0.553 | 0.554 | 0.946 | 0.943 | 0.977 | 0.898 | 0.848 | 1.11 | 1.11 | 1.08 | 0.627 | 0.983 | 0.808 | 0.67 | 0.465 | 0.681 | 0.676 |
| NCI-H358 | 0.16 | 0.19 | 0.162 | 0.145 | 0.156 | – | – | – | – | – | 0.445 | 0.381 | 0.481 | – | 0.456 | 0.311 | 0.36 | 0.426 | 0.395 | 0.238 |

Reference: the supplement of paper PMC10307832
